Results: ChEMBL document CHEMBL4627398 (J Med Chem, 2020)
In brackets after ≈: the same amount, converted by molar mass. Each block holds one molecule with its values, some of them ahead of it.

What was measured:
[1] = Terminal half life in dog at 0.3 mg/kg, iv; format: ADME, organism-based, Canis lupus familiaris; conditions: in vivo, read-out: beta t1/2 (converted)
[2] = Tmax in rat at 10 mg/kg, po; format: ADME, organism-based; conditions: in vivo
[3] = Metabolic stability in rat liver microsomes incubated for 60 mins; format: ADME, Microsome; conditions: read-out: Stability
[4] = Oral bioavailability in rat at 10 mg/kg; format: ADME, organism-based; conditions: in vivo
[5] = Metabolic stability in rat hepatocytes incubated for 60 mins; format: ADME, cell-based, Hepatocyte; conditions: read-out: Stability
[6] = Total clearance in dog at 0.3 mg/kg, iv; format: ADME, organism-based, Canis lupus familiaris; conditions: in vivo
[7] = Cmax in dog at 1 mg/kg, po; format: ADME, organism-based, Canis lupus familiaris; parameters: dose 1 mg/kg, route oral; conditions: in vivo
[8] = Cmax in rat at 10 mg/kg, po; format: ADME, organism-based; parameters: dose 10 mg/kg, route oral; conditions: in vivo
[9] = Clearance in monkey at 0.1 mg/kg, iv; format: ADME, organism-based, Macaca mulatta; conditions: rhesus monkey, in vivo
[10] = Metabolic stability in monkey hepatocytes incubated for 60 mins; format: ADME, cell-based, Macaca mulatta, Hepatocyte; conditions: rhesus monkey, read-out: Stability
[11] = Oral bioavailability in dog at 1 mg/kg; format: ADME, organism-based, Canis lupus familiaris; conditions: in vivo
[12] = Volume of distribution at steady state in dog at 0.3 mg/kg, iv; format: ADME, organism-based, Canis lupus familiaris; conditions: in vivo, read-out: Vdss
[13] = Solubility of the compound in PBS buffer; format: physicochemical
[14] = Solubility of the compound in human Caco2 cells; format: ADME, cell-based; conditions: Caco-2 cells
[15] = Metabolic stability in monkey liver microsomes incubated for 60 mins; format: ADME, Macaca mulatta, Microsome; conditions: rhesus monkey, read-out: Stability
[16] = Metabolic stability in dog liver microsomes incubated for 60 mins; format: ADME, Canis lupus familiaris, Microsome; conditions: read-out: Stability
[17] = Volume of distribution at steady state in rat at 1 mg/kg, iv; format: ADME, organism-based; conditions: in vivo, read-out: Vdss
[18] = MRT in rat at 1 mg/kg, iv; format: ADME, organism-based; conditions: in vivo
[19] = Lipophilicity, logD of the compound at pH 7; format: physicochemical; conditions: buffer
[20] = Metabolic stability in human liver microsomes incubated for 60 mins; format: ADME, Microsome; conditions: read-out: Stability
[21] = Tmax in dog at 1 mg/kg, po; format: ADME, organism-based, Canis lupus familiaris; conditions: in vivo
[22] = Solubility of the compound in FaSSIF; format: physicochemical
[23] = Total clearance in rat at 1 mg/kg, iv; format: ADME, organism-based; conditions: in vivo
[24] = Terminal half life in rat at 1 mg/kg, iv; format: ADME, organism-based; conditions: in vivo, read-out: beta t1/2 (converted)
[25] = MRT in dog at 0.3 mg/kg, iv; format: ADME, organism-based, Canis lupus familiaris; conditions: in vivo
[26] = Apparent permeability in human Caco2 cells; format: ADME, cell-based; conditions: Caco-2
[27] = Metabolic stability in human hepatocytes incubated for 60 mins; format: ADME, cell-based, Hepatocyte; conditions: read-out: Stability
[28] = Solubility of the compound in FeSSIF; format: physicochemical

SMILES: N#CCC(=O)N1CC(F)(F)C12CCN(c1ncnc3[nH]ccc13)C2 (single isomer, unassigned)
clearance [9]: 0.35 L/h/kg | remaining at 1 h [15]: 95.4% | remaining at 1 h [20]: 99.4%

SMILES: N#CCC(=O)N1CC(F)(F)C12CCCN(c1ncnc3[nH]ccc13)C2 (single isomer, unassigned)
remaining at 1 h [15]: 64.6% | remaining at 1 h [20]: 88.4%

SMILES: N#CCC(=O)N1CCC12CCCN(c1ncnc3[nH]ccc13)C2 (single isomer, unassigned)
clearance [9]: 0.76 L/h/kg | remaining at 1 h [15]: 85.2% | remaining at 1 h [20]: 93.4%

SMILES: N#CCC(=O)N1CCCC12CCCN(c1ncnc3[nH]ccc13)C2 (single isomer, unassigned)
remaining at 1 h [15]: 29.4% | remaining at 1 h [20]: 75.7%

Now from value to molecule:

half-life [1]: 2.3 h | Tmax [2]: 1.5 h | remaining at 1 h [3]: 90.2% | bioavailability [4]: 78% | remaining at 1 h [5]: 94.7% | clearance [6]: 0.37 L/h/kg | Cmax [7]: 1.9 ng/mL | Cmax [8]: 2.5 ng/mL | clearance [9]: 0.29 L/h/kg | remaining at 1 h [10]: 84.8% | bioavailability [11]: 124% | Vd [12]: 1.2 L/kg | solubility [13]: > 95 µM | solubility [14]: 1 µM (≈ 0.31 µg/mL) | remaining at 1 h [15]: 99.6% | remaining at 1 h [16]: 97.2% | Vd [17]: 2.1 L/kg | MRT [18]: 1 h | logD [19]: 0.6 | remaining at 1 h [20]: 97.4% | Tmax [21]: 0.9 h | solubility [22]: > 475 µM | clearance [23]: 2.1 L/h/kg | half-life [24]: 1.7 h | MRT [25]: 3.2 h | Papp [26]: 0.33 nm/s | remaining at 1 h [27]: 99.3% | solubility [28]: > 475 µM
SMILES: C[C@H]1CN(C(=O)CC#N)[C@]12CCN(c1ncnc3[nH]ccc13)C2 [DELGOCITINIB]

remaining at 1 h [15]: 25.1% | remaining at 1 h [20]: 73.4%
SMILES: CC1CN(C(=O)CC#N)C12CCCN(c1ncnc3[nH]ccc13)C2 (stereo not given)
